Data published in patent US11008572B2, “Methods and compositions for modulating splicing” (SKYHAWK THERAPEUTICS, INC., priority 2017, dated 2021).
Where two headings read alike, the source gives them in different places.

System: A-673 cells
Assay: Cell viability, crystal violet staining
Type: cell-based
Conditions: Homo sapiens
Description: To measure cell viability, cells were plated in 96-well plastic tissue culture plates at a density of 5×10^3 cells/well. Twenty-four hours after plating, cells were treated with various SMSMs. After 72 hours, the cell culture media were removed and plates were stained with […] of a solution containing 0.5% crystal violet and 25% methanol, rinsed with deionized water, dried overnight, and resuspended in […] citrate buffer (0.1 M sodium citrate in 50% ethanol) to assess plating efficiency. Intensity of crystal violet staining, assessed at 570 nm and quantified using a Vmax Kinetic Microplate Reader and Softmax software (Molecular Devices Corp., Menlo Park, Calif.), were directly proportional to cell number. Data were normalized to vehicle-treated cells and were presented as the mean±SE from representative experiments. SMSMs that are effective were determined for various cells lines.
A-673 cell viability […], splicing (IC50) and brain AUC/Plasma AUC of SMSMs were determined. As shown in the tables below SMSMs had high CNS exposure.

[1] = A673, cell viability, read-out: A-673 IC50 (nM) Cell viability
[2] = A673, cell viability, read-out: A-673 IC50 (nM), Cell viability

Row | SMILES | IC50 [1] [nM] | IC50 [2] [nM] | other results
1 | [2H]C([2H])([2H])Oc1cc(-c2cc(O)c(-c3ccc(N(C)[C@H]4C[C@]5(C)CC[C@](C)(C4)N5)nn3)cc2F)cc(F)n1 [compound 208, 2-(6-(((1R,3s,5S)-1,5-dimethyl-8-azabicyclo[3.2.1]octan-3-yl)(methyl)amino)pyridazin-3-yl)-4-fluoro-5-(2-fluoro-6-(methoxy-d3)pyridin-4-yl)phenol] | > 1000 | – | –
2 | CNC(=O)c1cc2cc(-c3ccc(N(C)[C@H]4C[C@]5(C)CCC[C@](C)(C4)N5)nn3)c(O)cc2o1 [compound 261, 5-(6-(((1R,3s,5S)-1,5-dimethyl-9-azabicyclo[3.3.1]nonan-3-yl)(methyl)amino)pyridazin-3-yl)-6-hydroxy-N-methylbenzofuran-2-carboxamide] | – | 10 to 100 | –
3 | COc1cccc(-c2ccc(-c3ccc(N(C)[C@H]4C[C@]5(C)CC[C@](C)(C4)N5)nn3)c(O)c2)c1 [compound 209, 4-(6-(((1R,3s,5S)-1,5-dimethyl-8-azabicyclo[3.2.1]octan-3-yl)(methyl)amino)pyridazin-3-yl)-3′-methoxy-[1,1′-biphenyl]-3-ol] | > 1000 | – | –
4 | Cc1ncc(-c2ccc(-c3ccc(N(C)[C@@H]4C[C@H]5CC[C@@H](C4)N5)nn3)c(O)c2)cn1 [compound 237, 2-(6-(((1R,3s,5S)-8-azabicyclo[3.2.1]octan-3-yl)(methyl)amino)pyridazin-3-yl)-5-(2-methylpyrimidin-5-yl)phenol] | – | 501 to 1000 | –
5 | CN(c1ccc(-c2ccc(-c3cnn(C)c(=O)c3)cc2O)nn1)[C@H]1C[C@]2(C)CCC[C@](C)(C1)N2 [compound 260, 5-(4-(6-(((1R,3s,5S)-1,5-dimethyl-9-azabicyclo[3.3.1]nonan-3-yl)(methyl)amino)pyridazin-3-yl)-3-hydroxyphenyl)-2-methylpyridazin-3(2H)-one] | – | < 10 | –
6 | CN(c1ccc(-c2ccc(-c3ccn(C)c(=O)c3)cc2O)nn1)[C@@H]1C[C@H]2CCC[C@@H](C1)N2 [compound 283, 4-(4-(6-(((1R,3s,5S)-9-azabicyclo[3.3.1]nonan-3-yl)(methyl)amino)pyridazin-3-yl)-3-hydroxyphenyl)-1-methylpyridin-2(1H)-one] | – | < 10 | –
7 | CN(c1ccc(-c2ccc(-c3cnn(CF)c3)cc2O)nn1)[C@H]1C[C@]2(C)CC[C@](C)(C1)N2 [compound 174, 2-(6-(((1R,3s,5S)-1,5-dimethyl-8-azabicyclo[3.2.1]octan-3-yl)(methyl)amino)pyridazin-3-yl)-5-(1-(fluoromethyl)-1H-pyrazol-4-yl)phenol] | < 10 | – | –
8 | CN(c1ccc(-c2cc(F)c(-c3cn[nH]c3)cc2O)nn1)[C@@H]1C[C@H]2CCC[C@@H](C1)N2 [compound 271, 2-(6-(((1R,3s,5S)-9-azabicyclo[3.3.1]nonan-3-yl)(methyl)amino)pyridazin-3-yl)-4-fluoro-5-(1H-pyrazol-4-yl)phenol] | – | < 10 | –
9 | CN(c1ccc(-c2cc(F)c(-c3ccn(C)c(=O)c3)cc2O)nn1)[C@H]1C[C@]2(C)CCC[C@](C)(C1)N2 [compound 265, 4-(4-(6-(((1R,3s,5S)-1,5-dimethyl-9-azabicyclo[3.3.1]nonan-3-yl)(methyl)amino)pyridazin-3-yl)-2-fluoro-5-hydroxyphenyl)-1-methylpyridin-2(1H)-one] | – | < 10 | –
10 | [2H]C([2H])([2H])Oc1cc(-c2ccc(-c3ccc(N(C)[C@H]4C[C@]5(C)CC[C@](C)(C4)N5)nn3)c(O)c2)cc(F)n1 [compound 207, 2-(6-(((1R,3s,5S)-1,5-dimethyl-8-azabicyclo[3.2.1]octan-3-yl)(methyl)amino)pyridazin-3-yl)-5-(2-fluoro-6-(methoxy-d3)pyridin-4-yl)phenol] | 10 to 100 | – | –
11 | CN(c1ccc(-c2cc(F)c(-n3cnc(C#N)c3)cc2O)nn1)[C@H]1C[C@]2(C)CC[C@](C)(C1)N2 [compound 197, 1-(4-(6-(((1R,3s,5S)-1,5-dimethyl-8-azabicyclo[3.2.1]octan-3-yl)(methyl)amino)pyridazin-3-yl)-2-fluoro-5-hydroxyphenyl)-1H-imidazole-4-carbonitrile] | > 1000 | – | –
12 | CN(c1ccc(-c2ccc(-n3cnc(F)c3)cc2O)nn1)[C@H]1C[C@]2(C)CC[C@](C)(C1)N2 [compound 176, 2-(6-(((1R,3s,5S)-1,5-dimethyl-8-azabicyclo[3.2.1]octan-3-yl)(methyl)amino)pyridazin-3-yl)-5-(4-fluoro-1H-imidazol-1-yl)phenol] | 10 to 100 | – | –
13 | CN(c1ccc(-c2ccc(-n3ccnc3)cc2O)nn1)[C@@H]1C[C@H]2CCC[C@@H](C1)N2 [compound 272, 2-(6-(((1R,3s,5S)-9-azabicyclo[3.3.1]nonan-3-yl)(methyl)amino)pyridazin-3-yl)-5-(1H-imidazol-1-yl)phenol] | – | 10 to 100 | –
14 | CN(c1ccc(-c2ccc(-c3ccnc(C#N)c3)cc2O)nn1)[C@H]1C[C@]2(C)CC[C@](C)(C1)N2 [compound 199] | 10 to 100 | – | –
15 | COc1cc(-c2ccc(-c3ccc(N(C)[C@@H]4C[C@H]5CCC[C@@H](C4)N5)nn3)c(O)c2)ccc1C [compound 292, 4-(6-(((1R,3s,5S)-9-azabicyclo[3.3.1]nonan-3-yl)(methyl)amino)pyridazin-3-yl)-3′-methoxy-4′-methyl-[1,1′-biphenyl]-3-ol] | – | > 1000 | –
16 | CN(c1ccc(-c2ccc(-c3cnn(C)c3)cc2O)nn1)[C@@H]1C[C@H]2CCC[C@@H](C1)N2 [compound 287, 2-(6-(((1R,3s,5S)-9-azabicyclo[3.3.1]nonan-3-yl)(methyl)amino)pyridazin-3-yl)-5-(1-methyl-1H-pyrazol-4-yl)phenol] | – | < 10 | –
17 | CN(c1ccc(-c2ccc(-c3cc[nH]c(=O)c3)cc2O)nn1)[C@H]1C[C@]2(C)CCC[C@](C)(C1)N2 [compound 306, 4-(4-(6-(((1R,3s,5S)-1,5-dimethyl-9-azabicyclo[3.3.1]nonan-3-yl)(methyl)amino)pyridazin-3-yl)-3-hydroxyphenyl)pyridin-2(1H)-one] | – | – | IC50 (A673, cell viability, read-out: A-673 IC50 (nM), cell viability): < 10 nM; IC50 (A673, read-out: A-673 cell viability (IC50)): < 3 nM
18 | CN(c1ccc(-c2ccc(-c3cc(=O)n(C)cn3)cc2O)nn1)[C@H]1C[C@]2(C)CC[C@](C)(C1)N2 [compound 194, 6-(4-(6-(((1R,3s,5S)-1,5-dimethyl-8-azabicyclo[3.2.1]octan-3-yl)(methyl)amino)pyridazin-3-yl)-3-hydroxyphenyl)-3-methylpyrimidin-4(3H)-one] | 10 to 100 | – | –
19 | [2H]C([2H])([2H])n1cc(-c2ccc(-c3ccc(N(C)[C@H]4C[C@]5(C)CC[C@](C)(C4)N5)nn3)c(O)c2)cn1 [compound 171, 2-(6-(((1R,3s,5S)-1,5-dimethyl-8-azabicyclo[3.2.1]octan-3-yl)(methyl)amino)pyridazin-3-yl)-5-(1-(methyl-d3)-1H-pyrazol-4-yl)phenol] | 10 to 100 | – | –
20 | CN(c1ccc(-c2cc(F)c(-c3cnn(C)c(=O)c3)cc2O)nn1)[C@@H]1C[C@H]2CCC[C@@H](C1)N2 [compound 286, 5-(4-(6-(((1R,3s,5S)-9-azabicyclo[3.3.1]nonan-3-yl)(methyl)amino)pyridazin-3-yl)-2-fluoro-5-hydroxyphenyl)-2-methylpyridazin-3(2H)-one] | – | < 10 | –
21 | CN(c1ccc(-c2ccc(-n3cnnc3)cc2O)nn1)[C@@H]1C[C@H]2CC[C@@H](C1)N2 [compound 235, 2-(6-(((1R,3s,5S)-8-azabicyclo[3.2.1]octan-3-yl)(methyl)amino)pyridazin-3-yl)-5-(4H-1,2,4-triazol-4-yl)phenol] | – | > 1000 | –
22 | Oc1cc(-n2cccn2)ccc1-c1ccc(O[C@@H]2C[C@H]3CC[C@@H](C2)N3)nn1 [compound 248, 2-(6-(((1R,3s,5S)-8-azabicyclo[3.2.1]octan-3-yl)oxy)pyridazin-3-yl)-5-(1H-pyrazol-1-yl)phenol] | – | 501 to 1000 | –
23 | COc1cncc(-c2ccc(-c3ccc(N(C)[C@H]4C[C@]5(C)CC[C@](C)(C4)N5)nn3)c(O)c2)c1 [compound 211, 2-(6-(((1R,3s,5S)-1,5-dimethyl-8-azabicyclo[3.2.1]octan-3-yl)(methyl)amino)pyridazin-3-yl)-5-(5-methoxypyridin-3-yl)phenol] | 251 to 500 | – | –
24 | CN(c1ccc(-c2ccc(-c3cc[nH]c(=O)c3)cc2O)nn1)[C@H]1C[C@]2(C)CC[C@](C)(C1)N2 [compound 183, 4-(4-(6-(((1R,3s,5S)-1,5-dimethyl-8-azabicyclo[3.2.1]octan-3-yl)(methyl)amino)pyridazin-3-yl)-3-hydroxyphenyl)pyridin-2(1H)-one] | 10 to 100 | – | –
25 | CN(c1ccc(-c2ccc(-c3ccn(CF)c(=O)c3)cc2O)nn1)[C@@H]1C[C@H]2CCC[C@@H](C1)N2 [compound 291, 4-(4-(6-(((1R,3s,5S)-9-azabicyclo[3.3.1]nonan-3-yl)(methyl)amino)pyridazin-3-yl)-3-hydroxyphenyl)-1-(fluoromethyl)pyridin-2(1H)-one] | – | < 10 | –
26 | [2H]C([2H])([2H])Oc1cc(-c2ccc(-c3ccc(N(C)[C@H]4C[C@]5(C)CC[C@](C)(C4)N5)nn3)c(O)c2)ccn1 [compound 172, 2-(6-(((1R,3s,5S)-1,5-dimethyl-8-azabicyclo[3.2.1]octan-3-yl)(methyl)amino)pyridazin-3-yl)-5-(2-(methoxy-d3)pyridin-4-yl)phenol] | < 10 | – | –
27 | CN(c1ccc(-c2cc(F)c(-c3cc(=O)n(C)cn3)cc2O)nn1)[C@H]1C[C@]2(C)CC[C@](C)(C1)N2 [compound 198, 6-(4-(6-(((1R,3s,5S)-1,5-dimethyl-8-azabicyclo[3.2.1]octan-3-yl)(methyl)amino)pyridazin-3-yl)-2-fluoro-5-hydroxyphenyl)-3-methylpyrimidin-4(3H)-one] | < 10 | – | –
